# Biological target: GLP-1R (Homo sapiens, UniProt P43220)
# Test: Agonist activity on GLP-1R, HTRF cAMP detection in stably transfected GLP-1R/HEK293 cells
# Type: cell-based
# Details: for EC50: 30 min incubation; for Max activity: relative to top concentration of reference GLP-1(7-37)
# Procedure: Detection of Agonist Activity of the Test Compounds on GLP-1R
# • 1) The test compound was dissolved in DMSO and diluted 4-fold with Bravo for a total of 10 concentration gradients (the starting concentration was 1 mM). […] HBSS (10 mL) pre-warmed at 37° C. was added, mixed gently, and centrifuged at 1000 rpm for 5 minutes. The supernatant was discarded and another 10 mL of […] was added and mixed gently. […] The plate was shaken to mix at 2000 rpm for 60 seconds. • 7) The cells in the 384-well plate were incubated in CO2 cell incubator at 37° C. for 30 min. • 8) 10 μL of HTRF cAMP detection solution was added to the 384-well plate, stick with sealing film, and incubated at room temperature for 1 hour. • 9) After 1 hour of incubation, the sealing film was removed. The plate was put into the EnVision microplate reader to read the values of OD665 nm and OD615 nm.
# Chain of GLP-1R (P43220 24-463): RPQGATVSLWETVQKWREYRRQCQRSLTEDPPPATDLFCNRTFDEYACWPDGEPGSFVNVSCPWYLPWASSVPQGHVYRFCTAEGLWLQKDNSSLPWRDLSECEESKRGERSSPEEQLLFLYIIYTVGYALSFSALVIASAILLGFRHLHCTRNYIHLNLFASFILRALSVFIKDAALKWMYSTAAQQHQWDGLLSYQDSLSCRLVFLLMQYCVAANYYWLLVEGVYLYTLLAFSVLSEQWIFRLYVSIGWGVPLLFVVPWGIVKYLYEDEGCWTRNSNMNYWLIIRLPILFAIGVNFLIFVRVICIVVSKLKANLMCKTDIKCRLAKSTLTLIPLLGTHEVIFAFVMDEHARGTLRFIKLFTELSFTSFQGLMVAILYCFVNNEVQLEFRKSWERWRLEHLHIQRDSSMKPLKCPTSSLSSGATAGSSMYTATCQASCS
EC50 [nM],Max activity [%],Compound
7.93,142.8,"CCn1nccc1Cn1c(CN2CCC(Oc3cccc(COc4ccc(C#N)cc4F)n3)CC2)nc2ccc(C(=O)O)cc21 [Compound C39, 2-((4-((6-((4-cyano-2-fluorophenoxy)methyl)pyridin-2-yl)oxy)piperidin-1-yl)methyl)-1-((1-ethyl-1H-pyrazol-5-yl)methyl)-1H-benzo[d]imidazole-6-carboxylic acid]"
21.7,94.8,"N#CCC1(Cn2c(CN3CCC(Oc4ccc(F)c(OCc5ccc(Cl)cc5F)n4)CC3)nc3c(F)cc(C(=O)O)cc32)CC1 [Compound S41, 2-((4-((6-((4-chloro-2-fluorobenzyl)oxy)-5-fluoropyridin-2-yl)oxy)piperidin-1-yl)methyl)-1-((1-(cyanomethyl)cyclopropyl)methyl)-4-fluoro-1H-benzo[d]imidazole-6-carboxylic acid]"
731,92.7,"N#Cc1ccc(COc2cccc(COC3CCN(Cc4nc5ccc(C(=O)O)cc5n4C[C@@H]4CCO4)CC3)n2)c(F)c1 [Compound S22, (S)-2-((4-((6-((4-cyano-2-fluorobenzyl)oxy)pyridin-2-yl)methoxy)piperidin-1-yl)methyl)-1-(oxetan-2-ylmethyl)-1H-benzo[d]imidazole-6-carboxylic acid]"
30.4,–,"Cn1c(CN2CCC(Oc3cccc(COc4ccc(Cl)cc4F)n3)CC2)nc2ccc(C(=O)O)cc21 [Compound C22, 2-((4-((6-((4-chloro-2-fluorophenoxy)methyl)pyridin-2-yl)oxy)piperidin-1-yl)methyl)-1-methyl-1H-benzo[d]imidazole-6-carboxylic acid]"
3.74,97.2,CCn1cncc1Cn1c(CN2CCC(Oc3cccc(CSc4ccc(Cl)cc4F)n3)CC2)nc2ccc(C(=O)O)cc21 [Compound C9]
0.233,125.5,"CCn1cncc1Cn1c(CN2CCC(Oc3cccc(CSc4ccc(C#N)cc4F)n3)CC2)nc2ccc(C(=O)O)cc21 [Compound C12, 2-((4-((6-(((4-cyano-2-fluorophenyl)thio)methyl)pyridin-2-yl)oxy)piperidin-1-yl)methyl)-1-((1-ethyl-1H-imidazol-5-yl)methyl)-1H-benzo[d]imidazole-6-carboxylic acid]"
8.03,–,"N#Cc1ccc(OCc2cccc(Oc3ccc(Cc4nc5ccc(C(=O)O)cc5n4C[C@@H]4CCO4)cc3)n2)c(F)c1 [Compound C27, (S)-2-(4-((6-((4-cyano-2-fluorophenoxy)methyl)pyridin-2-yl)oxy)benzyl)-1-(oxetan-2-ylmethyl)-1H-benzo[d]imidazole-6-carboxylic acid]"
0.264,126.6,"N#CCC1(Cn2c(CN3CCC(Oc4cccc(COc5ccc(C#N)cc5F)n4)CC3)nc3ccc(C(=O)O)cc32)CC1 [Compound 133, 2-((4-((6-((4-cyano-2-fluorophenoxy)methyl)pyridin-2-yl)oxy)piperidin-1-yl)methyl)-1-((1-(cyanomethyl)cyclopropyl)methyl)-1H-benzo[d]imidazole-6-carboxylic acid]"
0.425,137.0,"N#Cc1ccc(OCc2cccc(OC3CCN(Cc4nc5ccc(C(=O)O)cc5n4Cc4cncn4CC4CC4)CC3)c2)c(F)c1 [Compound C20, 2-((4-(3-((4-cyano-2-fluorophenoxy)methyl)phenoxy)piperidin-1-yl)methyl)-1-((1-(cyclopropylmethyl)-1H-imidazol-5-yl)methyl)-1H-benzo[d]imidazole-6-carboxylic acid]"
0.833,106.6,"CC(C)n1cncc1Cn1c(CN2CCC(Oc3cccc(COc4ccc(C#N)cc4F)n3)CC2)nc2ccc(C(=O)O)cc21 [Compound C31, 2-((4-((6-((4-cyano-2-fluorophenoxy)methyl)pyridin-2-yl)oxy)piperidin-1-yl)methyl)-1-((1-isopropyl-1H-imidazol-5-yl)methyl)-1H-benzo[d]imidazole-6-carboxylic acid]"
0.278,122.3,"CCn1cncc1Cn1c(CN2CCC(Oc3cccc(COc4ccc(Br)cc4F)n3)CC2)nc2ccc(C(=O)O)cc21 [Compound C3, 2-((4-((6-((4-bromo-2-fluorophenoxy)methyl)pyridin-2-yl)oxy)piperidin-1-yl)methyl)-1-((1-ethyl-1H-imidazol-5-yl)methyl)-1H-benzo[d]imidazole-6-carboxylic acid]"
11,113.6,"CCN1C(=O)CCC1Cn1c(CN2CCC(Oc3cccc(COc4ccc(C#N)cc4F)n3)CC2)nc2ccc(C(=O)O)cc21 (centres unmarked) [Compound C34, 2-((4-((6-((4-cyano-2-fluorophenoxy)methyl)pyridin-2-yl)oxy)piperidin-1-yl)methyl)-1-((1-ethyl-5-oxopyrrolidin-2-yl)methyl)-1H-benzo[d]imidazole-6-carboxylic acid]"
4.16,110.2,"N#Cc1ccc(SCc2cccc(OC3CCN(Cc4nc5ccc(C(=O)O)cc5n4C[C@@H]4CCO4)CC3)n2)c(F)c1 [Compound C10, (S)-2-((4-((6-((4-cyano-2-fluorophenylthio)methyl)pyridin-2-yl)oxy)piperidin-1-yl)methyl)-1-(oxetan-2-ylmethyl)-1H-benzo[d]imidazole-6-carboxylic acid]"
> 100,–,"N#Cc1ccc(OCc2cccc(OC3CCN(Cc4cc5ccc(C(=O)O)cc5n4CC4CCO4)CC3)n2)c(F)c1 (centres unmarked) [Compound C42, 2-((4-((6-((4-cyano-2-fluorophenoxy)methyl)pyridin-2-yl)oxy)piperidin-1-yl)methyl)-1-(oxetan-2-ylmethyl)-1H-indole-6-carboxylic acid]"
2.6,114.9,N#CCC1(Cn2c(CN3CCC(Oc4cccc(OCc5ccc(C#N)cc5F)c4)CC3)nc3c(F)cc(C(=O)O)cc32)CC1 [Compound S6]
7.48,90.7,"N#Cc1ccc(OCc2cccc(OC3CCN(Cc4nc5ccc(C(=O)O)cc5n4CC4COC4)CC3)n2)c(F)c1 [Compound C82, 2-((4-((6-((4-cyano-2-fluorophenoxy)methyl)pyridin-2-yl)oxy)piperidin-1-yl)methyl)-1-(oxetan-3-ylmethyl)-1H-benzo[d]imidazole-6-carboxylic acid]"
2170,70.1,"N#Cc1ccc(COc2cccc(OC3CN(Cc4nc5ccc(C(=O)O)cc5n4C[C@@H]4CCO4)C3)n2)c(F)c1 [Compound S3, (S)-2-((3-((6-((4-cyano-2-fluorobenzyl)oxy)pyridin-2-yl)oxy)azetidin-1-yl)methyl)-1-(oxetan-2-ylmethyl)-1H-benzo[d]imidazole-6-carboxylic acid]"
0.455,112.0,"N#Cc1ccc(OCc2cccc(OC3CCN(Cc4nc5ccc(C(=O)O)nc5n4C[C@@H]4CCO4)CC3)n2)c(F)c1 [Compound 60, (S)-2-((4-((6-((4-cyano-2-fluorophenoxy)methyl)pyridin-2-yl)oxy)piperidin-1-yl)methyl)-3-(oxetan-2-ylmethyl)-3H-imidazo[4,5-b]pyridine-5-carboxylic acid]"
1.82,141.7,"N#CCC1(Cn2c(CN3CCC(Oc4cccc(CSc5ccc(C#N)cc5F)n4)CC3)nc3ccc(C(=O)O)cc32)CC1 [Compound C13, 2-((4-((6-(((4-cyano-2-fluorophenyl)thio)methyl)pyridin-2-yl)oxy)piperidin-1-yl)methyl)-1-((1-(cyanomethyl)cyclopropyl)methyl)-1H-benzo[d]imidazole-6-carboxylic acid]"
